Data as given in PMC3969230, “Structural and functional characterization of NanU, a novel high-affinity sialic acid-inducible binding protein of oral and gut-dwelling Bacteroidetes species” (Biochemical Journal, 2014).
pKd: −log10 of the molar value. Several values for one entry are separate records, joined by “and”; a condition that tells them apart may be missing. Equal values may be shown once.

How the values were obtained:
NanU = test: Steady-state tryptophan fluorescence titration, NanU (species not told apart); format: binding; conditions: for binding to NanU (in words): tryptophan fluorescence quenching
Experimental: (§1) Proteins were diluted in 25 mM sodium phosphate buffer, pH 7.4, to a final concentration of 0.5 μM and incubated at 25°C for 5 min before substrate titration. The quenching of intrinsic tryptophan fluorescence was measured at 25°C with constant stirring in a 104F-QS quartz fluorescence semi-micro cell (Hellma Analytics) using a Varian Cary Eclipse spectrofluorometer. The excitation and emission wavelengths were 295 nm (5 nm slit width) and 330 nm (10 nm slit width) respectively. Corrections for background fluorescence changes due to dilution effects with the stepwise addition of ligands were made by buffer titrations. Analysis and curve fitting of titration data were performed in Prism 5 (GraphPad Software), with the equilibrium dissociation constants (Kd) for one site-specific binding calculated using eqn (1): (1) Y=Bmax×X/(Kd+X) where X is the final concentration of ligand, Y is the percentage increase in protein quenching in relation to the protein-only fluorescence signal and Bmax is the extrapolated maximum specific binding.

BT1043 = test system: BT1043; design: method as in PMID 19191477; conditions: non-physiological ligand; cited from earlier work
BF-NanU (BF1720) = BF-NanU (BF1720) (Bacteroides fragilis, UniProt Q5LEN2); test: Steady-state tryptophan fluorescence titration, BF-NanU; format: binding
Experimental: as §1

TF-NanU (TF0034) = TF-NanU (TF0034) (Tannerella forsythia, UniProt G8UIQ0); test: Steady-state tryptophan fluorescence titration, TF-NanU; conditions: 0.5 μM protein, 25 mM sodium phosphate pH 7.4, 25°C, one-site specific binding
Experimental: as §1

SiaP = biological target: SiaP; design: method as in PMID 16702222; conditions: cited from earlier work
[1] = biological target: lectin domain of the Vibrio cholerae sialidase; design: method as in PMID 15226294; conditions: read-out: affinity; cited from earlier work
SusD = test system: SusD; design: method as in PMID 18611383; conditions: non-physiological ligand; cited from earlier work
[2] = 0.5 μM protein, 25 mM sodium phosphate pH 7.4, 25°C, one-site specific binding

Chain of BF-NanU (BF1720) (Q5LEN2 entry or part of it): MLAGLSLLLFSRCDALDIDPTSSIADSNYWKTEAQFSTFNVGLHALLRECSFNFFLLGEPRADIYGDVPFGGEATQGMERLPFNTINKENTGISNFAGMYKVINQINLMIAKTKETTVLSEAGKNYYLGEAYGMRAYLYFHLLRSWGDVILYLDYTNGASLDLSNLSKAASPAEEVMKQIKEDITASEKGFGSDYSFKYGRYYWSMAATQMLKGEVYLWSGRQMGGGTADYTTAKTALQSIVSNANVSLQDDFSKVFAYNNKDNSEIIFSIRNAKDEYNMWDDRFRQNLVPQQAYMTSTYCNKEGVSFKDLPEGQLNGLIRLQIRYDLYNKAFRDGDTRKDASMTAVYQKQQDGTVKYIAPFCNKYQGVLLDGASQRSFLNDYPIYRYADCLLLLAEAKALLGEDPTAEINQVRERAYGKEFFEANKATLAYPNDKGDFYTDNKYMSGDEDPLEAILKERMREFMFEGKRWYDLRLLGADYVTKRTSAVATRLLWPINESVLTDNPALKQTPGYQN
Chain of TF-NanU (TF0034) (G8UIQ0 entry or part of it): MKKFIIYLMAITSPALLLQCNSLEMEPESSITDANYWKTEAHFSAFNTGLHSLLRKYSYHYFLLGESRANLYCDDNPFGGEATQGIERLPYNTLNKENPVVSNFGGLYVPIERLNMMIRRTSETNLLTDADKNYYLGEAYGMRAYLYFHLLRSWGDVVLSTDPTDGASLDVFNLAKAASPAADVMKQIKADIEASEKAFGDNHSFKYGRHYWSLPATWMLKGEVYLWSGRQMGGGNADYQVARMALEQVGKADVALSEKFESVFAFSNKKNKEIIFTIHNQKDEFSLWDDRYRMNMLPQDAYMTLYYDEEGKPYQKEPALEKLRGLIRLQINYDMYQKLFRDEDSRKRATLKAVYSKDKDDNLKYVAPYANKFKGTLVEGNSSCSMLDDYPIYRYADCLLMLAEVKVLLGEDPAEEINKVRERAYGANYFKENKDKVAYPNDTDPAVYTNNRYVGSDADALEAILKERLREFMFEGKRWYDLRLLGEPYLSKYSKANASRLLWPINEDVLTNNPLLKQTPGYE

## CC(=O)NC1C(O)CC(OC2C(O)C(CO)OC(OC3C(CO)OC(O)C(O)C3O)C2O)(C(=O)O)OC1C(O)C(O)CO (stereo not shown) [3′-siallyl-lactose]
NanU
  binding to NanU (in words): did not display any interaction

## CC(=O)NC1C(O)CC(OCC2OC(OC3C(CO)OC(O)C(O)C3O)C(O)C(O)C2O)(C(=O)O)OC1C(O)C(O)CO (stereo not shown) [6′-siallyl-lactose]
NanU
  binding to NanU (in words): did not display any interaction

## CC(=O)N[C@H]1C(O)O[C@H](CO)[C@@H](O[C@@H]2O[C@H](CO)[C@H](O)[C@H](O)[C@H]2O)[C@@H]1O (stereo partly shown) [N-acetyl lactosamine]
BT1043
  binding interaction (range in words): in the mM range

## CC(=O)N[C@H]1[C@H]([C@H](O)[C@H](O)CO)OC(C(=O)O)=C[C@@H]1O [Neu5Ac2en, 2-deoxy-2,3-didehydro-Neu5Ac]
BF-NanU (BF1720); [2]
  pKd: 5.25 and 5.26
TF-NanU (TF0034)
  pKd: 5.08

## CC(=O)N[C@H]1[C@H]([C@H](O)[C@H](O)CO)OC(O)(C(=O)O)C[C@@H]1O (stereo partly shown) [Neu5Ac, 5-N-acetylneuraminic acid]
BF-NanU (BF1720); [2]
  pKd: 6.40
BF-NanU (BF1720); BF-NanU expressed and purified from cells grown in M9 medium plus glycerol (results not shown)
  pKd: 6.39
SiaP
  pKd: 6.92
[1]
  pKd: 4.52
NanU; NanU from two Bacteroidetes species, approximate summary value
  pKd: ~6.40
TF-NanU (TF0034)
  pKd: 6.37 and 6.40

## O=C(CO)N[C@H]1[C@H]([C@H](O)[C@H](O)CO)O[C@](O)(C(=O)O)C[C@@H]1O [Neu5Gc, N-glycolylneuraminic acid]
BF-NanU (BF1720); [2]
  pKd: 5.70 and 5.78 and 5.77
NanU; Neu5Gc compared with Neu5Ac
  affinity lower than Neu5Ac (fold): 5 fold
TF-NanU (TF0034)
  pKd: 5.77 and 5.70

## CCOC(=O)C1=C[C@@H](OC(CC)CC)[C@H](NC(C)=O)[C@@H](N)C1 [Oseltamivir, oseltamivir]
NanU
  binding to NanU (in words): No binding
NanU; listed as oseltamivir
  binding to NanU (in words): neither

## CC(=O)N[C@H]1NC[C@H](C(=O)O)[C@H](O)[C@@H]1O [Siastatin B, siastatin B]
NanU
  binding to NanU (in words): No binding
NanU; listed as siastatin B
  binding to NanU (in words): neither

## CC(=O)N[C@H]1[C@H]([C@H](O)[C@H](O)CO)OC(C(=O)O)=C[C@@H]1N=C(N)N [Zanamivir, zanamivir]
BF-NanU (BF1720); [2]
  pKd: 6.05 and 6.04
TF-NanU (TF0034)
  pKd: 5.96 and 5.95

## cyclodextrin
SusD
  binding interaction (range in words): in the hundreds of μM range

## sialyl-lactose
NanU
  binding to NanU (in words): does not bind
